Where “and” joins values, the source holds several entries; their conditions need not be identical. Identical values can stand only once.
Conditions: Liquid, Transpiration method

CCCCCCCOC=O [heptyl methanoate]
Conditions	vapor or sublimation pressure
276.1 K	0.0215 kPa
277.6 K	0.02468 kPa
278.6 K	0.02656 kPa
280.4 K	0.03187 kPa
283.3 K	0.04168 kPa
288.3 K	0.06125 kPa
293.2 K	0.0889 kPa and 0.08971 kPa
293.3 K	0.08835 kPa
298.3 K	0.13 kPa and 0.1304 kPa
303.3 K	0.183 kPa
308.2 K	0.257 kPa
311 K	0.3176 kPa
313.3 K	0.3549 kPa
316.4 K	0.4359 kPa

CCCCCCOC=O [hexyl methanoate]
Conditions	vapor or sublimation pressure
275.4 K	0.07241 kPa
278.5 K	0.09094 kPa
283.3 K	0.1319 kPa
288.2 K	0.1935 kPa
293.3 K	0.2694 kPa
293.4 K	0.2753 kPa
298.4 K	0.4056 kPa and 0.4085 kPa
303.2 K	0.5577 kPa
303.3 K	0.5448 kPa
308.3 K	0.7473 kPa and 0.7588 kPa
313.4 K	1.016 kPa and 1.013 kPa

CCCCCCOC(=O)CC [hexyl propanoate]
Conditions	vapor or sublimation pressure
278.3 K	0.01764 kPa
280.7 K	0.0221 kPa
283.4 K	0.02827 kPa
285.8 K	0.03417 kPa
288.2 K	0.04354 kPa
298.4 K	0.09932 kPa
303.2 K	0.1369 kPa and 0.1363 kPa
308.2 K	0.2024 kPa
313.3 K	0.2793 kPa
318.5 K	0.3993 kPa
323.4 K	0.5422 kPa
326.4 K	0.6804 kPa
328.4 K	0.7646 kPa
330.6 K	0.8602 kPa
333.3 K	0.9961 kPa

CCCCCCCCOC=O [octyl methanoate]
Conditions	vapor or sublimation pressure
283.3 K	0.01298 kPa
285.7 K	0.01585 kPa
288.2 K	0.01973 kPa
290.8 K	0.02392 kPa
293.3 K	0.02964 kPa
298.4 K	0.04462 kPa
303.2 K	0.0622 kPa and 0.06388 kPa
308.2 K	0.09465 kPa
313.5 K	0.1368 kPa
318.5 K	0.1894 kPa
323.5 K	0.2656 kPa
328.4 K	0.3665 kPa
331.3 K	0.4318 kPa
333.4 K	0.4943 kPa
335.3 K	0.5488 kPa
338.3 K	0.6635 kPa

CCCCCCCCOC(=O)CC [octyl propanoate]
Conditions	vapor or sublimation pressure [kPa]
293.3 K	0.00465
295.7 K	0.00575
298.4 K	0.00732
300.3 K	0.00883
303.3 K	0.01129
308.3 K	0.0173
313.4 K	0.02656
318.5 K	0.0387
323.4 K	0.0541
328.5 K	0.08043
333.3 K	0.1125
338.3 K	0.155
340.3 K	0.176
343 K	0.2098
346.4 K	0.2681
348.4 K	0.2952

CCCCCOC(C)=O [pentyl ethanoate]
Conditions	vapor or sublimation pressure
274.2 K	0.08539 kPa
274.3 K	0.08709 kPa
275.6 K	0.0953 kPa and 0.09555 kPa
278.2 K	0.1145 kPa
280.8 K	0.1396 kPa
283.2 K	0.1683 kPa
288.2 K	0.2413 kPa
293.3 K	0.343 kPa
298.4 K	0.4754 kPa
303.3 K	0.658 kPa
306.7 K	0.807 kPa
308.2 K	0.9035 kPa
310.6 K	1.031 kPa
313.4 K	1.219 kPa

CCCCCOC=O [pentyl methanoate]
Conditions	vapor or sublimation pressure
274.2 K	0.2283 kPa
274.3 K	0.2293 kPa
275.7 K	0.2518 kPa
278.3 K	0.3006 kPa and 0.3046 kPa
281 K	0.37 kPa and 0.3692 kPa
283.2 K	0.4349 kPa
288.2 K	0.61 kPa
293.3 K	0.8452 kPa
298.4 K	1.161 kPa
303.3 K	1.571 kPa
305.6 K	1.779 kPa
308 K	2.045 kPa
310.7 K	2.374 kPa
313.3 K	2.757 kPa

CCCCCOC(=O)CC [pentyl propanoate]
Conditions	vapor or sublimation pressure [kPa]
274.1 K	0.02995
275.5 K	0.03342
278.3 K	0.04139
280.9 K	0.05087
283.4 K	0.06315
288.3 K	0.09403
293.3 K	0.1374
298.4 K	0.1984
303.3 K	0.2789
308.2 K	0.3925
313.4 K	0.5328
318.5 K	0.7195
320.7 K	0.8423
323.4 K	0.9568
325.6 K	1.098
328.4 K	1.293

Reference: the NIST ThermoML archive (doi:10.1016/j.fluid.2012.08.003)
